In paper PMC5040747, “Preparation and Evaluation of a Novel Class of Amphiphilic Amines as Antitumor Agents and Nanocarriers for Bioactive Molecules” (Pharmaceutical Research, 2016):
Like-named read-outs stand apart in the source and are kept apart here.

Experiments:
[1] = Encapsulation of drugs in RC16 micelles; format: physicochemical; conditions: drug complexed in RC16 micelles, after dialysis and freeze-drying
Experimental: (§1) Aqueous solutions of RC16 (10 mM, 1 mL) were mixed with ethanol solutions of Doxorubicin, Paclitaxel or Etoposide (1 mM, 1 mL). After stirring 12 h at 25 C the mixtures were dialyzed through 5000 Da MW cutoff dialysis membranes against 100 ml water by changing the external medium every 8 h for 3 days. The RC16-drug complex collected after dialysis was freeze-dried and the solid residue obtained was spectrophotometrically analysed to estimate the percentage of drug in the final product. The anticancer activity of each complexed drug was evaluated in CHLA-20 as the difference between the activity of the complex and the pure RC16 at the same concentration of the complex.

[2] = test system: CHLA-20 cells; assay: Cell killing activity of drugs complexed with RC16 (MTT); format: cell-based, human; conditions: CHLA-20, free drug at concentration corresponding to that present in the complex, 48 h, percent of untreated cells
Experimental: as §1

[3] = test system: Ramos; assay: MTT cell proliferation assay, Ramos; format: cell-based; conditions: Homo sapiens, Lymphoma, read-out: Cell killing activity IC50
Experimental: (§2) Cells were plated in 96-well tissue culture plates at a density of 1 × 10^3 cells/well, allowed to attach 24 h, and then left untreated or treated with growth medium containing different concentrations of the tested RCn compounds previously dissolved in PBS. After different time periods the cell vitality was determined by MTT assay according to the manufacture’s instruction (Promega). Results are reported as the micromolar concentration of RCn reducing cell survival to 50% (IC50).

[4] = test system: S462TY; assay: MTT cell proliferation assay, S462TY; format: cell-based; conditions: Homo sapiens, Malignant Peripheral Nerve Sheath Tumor, read-out: Cell killing activity IC50
Experimental: as §2

[5] = test system: SK-N-AS; assay: MTT cell proliferation assay, SK-N-AS; format: cell-based; conditions: Homo sapiens, Neuroblastoma, read-out: Cell killing activity IC50
Experimental: as §2

[6] = test system: 143.98.2; assay: MTT cell proliferation assay, 143.98.2; format: cell-based; conditions: Homo sapiens, 143.98.2, Osteosarcoma, read-out: Cell killing activity IC50
Experimental: as §2

[7] = test system: A673; assay: MTT cell proliferation assay, A673; format: cell-based; conditions: Homo sapiens, A673, Ewing's Sarcoma, read-out: Cell killing activity IC50
Experimental: as §2

[8] = test system: Rh41; assay: MTT cell proliferation assay, Rh41; format: cell-based; conditions: Homo sapiens, Rh41, Rhabdomyosarcoma, read-out: Cell killing activity IC50
Experimental: as §2

Row | Compound | Encapsulation efficiency (weight percentage of drug in the final complex) [1] [%] | Cell viability, % CTR (free drug) [2] [% CTR] | IC50 ([3]; 24 h) [nM] | IC50 ([3]; 48 h) [nM] | IC50 ([4]; 24 h) [nM] | IC50 ([4]; 48 h) [nM] | IC50 ([5]; 24 h) [nM] | IC50 ([5]; 48 h) [nM] | IC50 ([6]; 24 h) [nM] | IC50 ([6]; 48 h) [nM] | IC50 ([7]; 24 h) [nM] | IC50 ([7]; 48 h) [nM] | IC50 ([8]; 24 h) [nM] | IC50 ([8]; 48 h) [nM]
1 | COc1cccc2c1C(=O)c1c(O)c3c(c(O)c1C2=O)C[C@@](O)(C(=O)CO)C[C@@H]3O[C@H]1C[C@H](N)[C@H](O)[C@H](C)O1 [DOXO, Doxorubicin] | 2.3 ± 0.78 | 27.62 ± 0.55 | – | – | – | – | – | – | – | – | – | – | – | –
2 | COc1cc([C@@H]2c3cc4c(cc3[C@@H](O[C@@H]3O[C@@H]5CO[C@@H](C)O[C@H]5[C@H](O)[C@H]3O)[C@H]3COC(=O)[C@H]23)OCO4)cc(OC)c1O [ETO, Etoposide] | 1.0 ± 0.59 | 65.80 ± 5.76 | – | – | – | – | – | – | – | – | – | – | – | –
3 | CC(=O)O[C@H]1C(=O)[C@@]2(C)[C@H]([C@H](OC(=O)c3ccccc3)[C@]3(O)C[C@H](OC(=O)[C@H](O)[C@@H](NC(=O)c4ccccc4)c4ccccc4)C(C)=C1C3(C)C)[C@]1(OC(C)=O)CO[C@@H]1C[C@@H]2O [PTX, Paclitaxel] | 1.8 ± 0.73 | 56.93 ± 4.61 | – | – | – | – | – | – | – | – | – | – | – | –
4 | CCCCCC1CN2CCCN3CCCCCC132 (stereo not drawn) [RC7, 2-pentyl-4,8-diazatricyclo[6.5.0.0^1,^4]tridecane] | – | – | 4550 | 3120 | 5620 | 3900 | 5210 | 3430 | 4510 | 3780 | 5730 | 4110 | 5780 | 4010
5 | CCCCCCCCC1CN2CCCN3CCCCCC132 (stereo not drawn) [RC10, 2-octyl-4,8-diazatricyclo[6.5.0.0^1,^4]tridecane] | – | – | 2100 | 1030 | 2390 | 1780 | 2140 | 1560 | 2550 | 1680 | 2600 | 2020 | 2850 | 2030
6 | CCCCCCCCCCC1CN2CCCN3CCCCCC132 (stereo not drawn) [RC12, 2-decyl-4,8-diazatricyclo[6.5.0.0^1,^4]tridecane] | – | – | 1180 | 740 | 2000 | 1090 | 1870 | 710 | 1980 | 1240 | 1820 | 1650 | 1750 | 1160
7 | CCCCCCCCCCCCC1CN2CCCN3CCCCCC132 (stereo not drawn) [RC14, 2-dodecyl-4,8-diazatricyclo[6.5.0.0^1,^4]tridecane] | – | – | 960 | 220 | 1810 | 950 | 1200 | 630 | 1310 | 780 | 1270 | 1130 | 1360 | 970
8 | CCCCCCCCCCCCCCCCC1CN2CCCN3CCCCCC132 (stereo not drawn) [RC18, 2-hexadecyl-4,8-diazatricyclo[6.5.0.0^1,^4]tridecane] | – | – | 830 | 170 | 1670 | 880 | 1230 | 750 | 920 | 650 | 1030 | 980 | 1010 | 820
9 | CCCCCCCCCCCCCCCCCCC1CN2CCCN3CCCCCC132 (stereo not drawn) [RC20, 2-octadecyl-4,8-diazatricyclo[6.5.0.0^1,^4]tridecane] | – | – | 970 | 200 | 1830 | 1160 | 1600 | 900 | 1090 | 830 | 1220 | 1350 | 1680 | 1120
